Source: ChEMBL document CHEMBL5634139, “Novel substituted 4-(Arylethynyl)-Pyrrolo[2,3-d]pyrimidines negative allosteric modulators (NAMs) of the metabotropic glutamate receptor subtype 5 (mGlu5) Treat depressive disorder in mice” (Eur J Med Chem, 2023)
Calls of active or inactive are those of the source. No cut-off for these calls is given here.

What was measured:
[1] = biological target: Metabotropic glutamate receptor 5 (Rattus norvegicus, UniProt P31424); assay: Negative allosteric modulation of rat mGluR5 expressed in HEK293 assessed as decrease in intracellular calcium incubated for 30 mins by Fluo-6 calcium dye based FLIPR assay; type: functional, cell-based
[2] = Toxicity in chronic unpredictable mild stress induced depression C57BL/6J mouse model assessed as change in AST level in liver at 40 mg/kg,IG administration for 3 days by ELISA; type: organism-based; conditions: in vivo, po, 72 h, time 3 day
Mus musculus [3] = assay: Antidepressant activity in chronic unpredictable mild stress induced depression C57BL/6J mouse model assessed as decrease in immobility time at 5 to 20 mg/kg,IG administration for 3 days by tail suspension test; type: functional, organism-based; conditions: dose 5-20 mg/kg, time 3.0 day
[4] = Toxicity in chronic unpredictable mild stress induced depression C57BL/6J mouse model assessed as change in ALT level in liver at 40 mg/kg,IG administration for 3 days by ELISA; type: organism-based; conditions: in vivo, po, 72 h, time 3 day
Mus musculus [5] = assay: Antidepressant activity in chronic unpredictable mild stress induced depression C57BL/6J mouse model assessed as upregulation of GluA2 expression in hippocampus at 5 to 20 mg/kg,IG administration for 3 days by Western blotting analysis; type: functional, organism-based; conditions: dose 5-20 mg/kg, time 3.0 day
Mus musculus [6] = assay: Antidepressant activity in chronic unpredictable mild stress induced depression C57BL/6J mouse model assessed as increase in frequency entering the central area at 10 mg/kg,IG administration for 3 days by open field test; type: functional, organism-based; conditions: time 3.0 day
Mus musculus [7] = assay: Antidepressant activity in chronic unpredictable mild stress induced depression C57BL/6J mouse model assessed as change in total distance travelled at 5 to 20 mg/kg,IG administration for 3 days by open field test; type: functional, organism-based; conditions: dose 5-20 mg/kg, time 3.0 day
Mus musculus [8] = assay: Antidepressant activity in chronic unpredictable mild stress induced depression C57BL/6J mouse model assessed as downregulation of CORT level in peripheral serum at 20 mg/kg,IG administration for 3 days by ELISA; type: functional, organism-based; conditions: time 3.0 day
Mus musculus [9] = assay: Antidepressant activity in chronic unpredictable mild stress induced depression C57BL/6J mouse model assessed as upregulation of GluA1 expression in hippocampus at 5 to 20 mg/kg,IG administration for 3 days by Western blotting analysis; type: functional, organism-based; conditions: dose 5-20 mg/kg, time 3.0 day
Mus musculus [10] = assay: Antidepressant activity in chronic unpredictable mild stress induced depression C57BL/6J mouse model assessed as increase in time spent in central area at 20 mg/kg,IG administration for 3 days by open field test; type: functional, organism-based; conditions: time 3.0 day
Mus musculus [11] = assay: Antidepressant activity in chronic unpredictable mild stress induced depression C57BL/6J mouse model assessed as increase in frequency entering the central area at 20 mg/kg,IG administration for 3 days by open field test; type: functional, organism-based; conditions: time 3.0 day
Mus musculus [12] = assay: Antidepressant activity in chronic unpredictable mild stress induced depression C57BL/6J mouse model assessed as upregulation of BDNF expression in hippocampus at 20 mg/kg,IG administration for 3 days by Western blotting analysis; type: functional, organism-based; conditions: time 3.0 day
Mus musculus [13] = assay: Antidepressant activity in chronic unpredictable mild stress induced depression C57BL/6J mouse model assessed as upregulation of BDNF expression in hippocampus at 10 mg/kg,IG administration for 3 days by Western blotting analysis; type: functional, organism-based; conditions: time 3.0 day
Mus musculus [14] = assay: Antidepressant activity in chronic unpredictable mild stress induced depression C57BL/6J mouse model assessed as decrease in immobility time at 5 to 20 mg/kg,IG administration for 3 days by forced swimming test; type: functional, organism-based; conditions: dose 5-20 mg/kg, time 3.0 day
Mus musculus [15] = assay: Antidepressant activity in chronic unpredictable mild stress induced depression C57BL/6J mouse model assessed as upregulation of 5-HT level in peripheral serum at 20 mg/kg,IG administration for 3 days by ELISA; type: functional, organism-based; conditions: time 3.0 day
Mus musculus [16] = assay: Antidepressant activity in chronic unpredictable mild stress induced depression C57BL/6J mouse model assessed as downregulation of CORT level in peripheral serum at 10 mg/kg,IG administration for 3 days by ELISA; type: functional, organism-based; conditions: time 3.0 day
[17] = Toxicity in chronic unpredictable mild stress induced depression C57BL/6J mouse model assessed as change in creatine kinase level in heart at 40 mg/kg,IG administration for 3 days by ELISA; type: organism-based; conditions: in vivo, po, 72 h, time 3 day
Mus musculus [18] = assay: Antidepressant activity in chronic unpredictable mild stress induced depression C57BL/6J mouse model assessed as increase in time spent in central area at 10 mg/kg,IG administration for 3 days by open field test; type: functional, organism-based; conditions: time 3.0 day
Mus musculus [19] = assay: Antidepressant activity in chronic unpredictable mild stress induced depression C57BL/6J mouse model assessed as increase in body weight at 5 to 20 mg/kg,IG administration for 3 days; type: functional, organism-based; conditions: dose 5-20 mg/kg, time 3.0 day
Mus musculus [20] = assay: Antidepressant activity in chronic unpredictable mild stress induced depression C57BL/6J mouse model assessed as upregulation of PKA phosphorylation in hippocampus at 20 mg/kg,IG administration for 3 days by Western blotting analysis; type: functional, organism-based; conditions: time 3.0 day
Mus musculus [21] = assay: Antidepressant activity in chronic unpredictable mild stress induced depression C57BL/6J mouse model assessed as upregulation of TrkB phosphorylation in hippocampus at 10 mg/kg,IG administration for 3 days by Western blotting analysis; type: functional, organism-based; conditions: time 3.0 day
Mus musculus [22] = assay: Antidepressant activity in chronic unpredictable mild stress induced depression C57BL/6J mouse model assessed as upregulation of TrkB phosphorylation in hippocampus at 20 mg/kg,IG administration for 3 days by Western blotting analysis; type: functional, organism-based; conditions: time 3.0 day
Mus musculus [23] = assay: Antidepressant activity in chronic unpredictable mild stress induced depression C57BL/6J mouse model assessed as upregulation of 5-HT level in peripheral serum at 5 mg/kg,IG administration for 3 days by ELISA; type: functional, organism-based; conditions: time 3.0 day
Mus musculus [24] = assay: Antidepressant activity in chronic unpredictable mild stress induced depression C57BL/6J mouse model assessed as increase in time spent in central area at 5 mg/kg,IG administration for 3 days by open field test; type: functional, organism-based; conditions: time 3.0 day
Mus musculus [25] = assay: Antidepressant activity in chronic unpredictable mild stress induced depression C57BL/6J mouse model assessed as increase in body weight at 5 mg/kg,IG administration for 3 days; type: functional, organism-based; conditions: time 3.0 day
Mus musculus [26] = assay: Antidepressant activity in chronic unpredictable mild stress induced depression C57BL/6J mouse model assessed as decrease in immobility time at 5 mg/kg,IG administration for 3 days by tail suspension test; type: functional, organism-based; conditions: time 3.0 day
Mus musculus [27] = assay: Antidepressant activity in chronic unpredictable mild stress induced depression C57BL/6J mouse model assessed as change in total distance travelled at 5 mg/kg,IG administration for 3 days by open field test; type: functional, organism-based; conditions: time 3.0 day
Mus musculus [28] = assay: Antidepressant activity in chronic unpredictable mild stress induced depression C57BL/6J mouse model assessed as downregulation of CORT level in peripheral serum at 5 mg/kg,IG administration for 3 days by ELISA; type: functional, organism-based; conditions: time 3.0 day
Mus musculus [29] = assay: Antidepressant activity in chronic unpredictable mild stress induced depression C57BL/6J mouse model assessed as decrease in immobility time at 5 mg/kg,IG administration for 3 days by forced swimming test; type: functional, organism-based; conditions: time 3.0 day
Mus musculus [30] = assay: Antidepressant activity in chronic unpredictable mild stress induced depression C57BL/6J mouse model assessed as increase in frequency entering the central area at 5 mg/kg,IG administration for 3 days by open field test; type: functional, organism-based; conditions: time 3.0 day

Sequence of Metabotropic glutamate receptor 5 (P31424 whole entry): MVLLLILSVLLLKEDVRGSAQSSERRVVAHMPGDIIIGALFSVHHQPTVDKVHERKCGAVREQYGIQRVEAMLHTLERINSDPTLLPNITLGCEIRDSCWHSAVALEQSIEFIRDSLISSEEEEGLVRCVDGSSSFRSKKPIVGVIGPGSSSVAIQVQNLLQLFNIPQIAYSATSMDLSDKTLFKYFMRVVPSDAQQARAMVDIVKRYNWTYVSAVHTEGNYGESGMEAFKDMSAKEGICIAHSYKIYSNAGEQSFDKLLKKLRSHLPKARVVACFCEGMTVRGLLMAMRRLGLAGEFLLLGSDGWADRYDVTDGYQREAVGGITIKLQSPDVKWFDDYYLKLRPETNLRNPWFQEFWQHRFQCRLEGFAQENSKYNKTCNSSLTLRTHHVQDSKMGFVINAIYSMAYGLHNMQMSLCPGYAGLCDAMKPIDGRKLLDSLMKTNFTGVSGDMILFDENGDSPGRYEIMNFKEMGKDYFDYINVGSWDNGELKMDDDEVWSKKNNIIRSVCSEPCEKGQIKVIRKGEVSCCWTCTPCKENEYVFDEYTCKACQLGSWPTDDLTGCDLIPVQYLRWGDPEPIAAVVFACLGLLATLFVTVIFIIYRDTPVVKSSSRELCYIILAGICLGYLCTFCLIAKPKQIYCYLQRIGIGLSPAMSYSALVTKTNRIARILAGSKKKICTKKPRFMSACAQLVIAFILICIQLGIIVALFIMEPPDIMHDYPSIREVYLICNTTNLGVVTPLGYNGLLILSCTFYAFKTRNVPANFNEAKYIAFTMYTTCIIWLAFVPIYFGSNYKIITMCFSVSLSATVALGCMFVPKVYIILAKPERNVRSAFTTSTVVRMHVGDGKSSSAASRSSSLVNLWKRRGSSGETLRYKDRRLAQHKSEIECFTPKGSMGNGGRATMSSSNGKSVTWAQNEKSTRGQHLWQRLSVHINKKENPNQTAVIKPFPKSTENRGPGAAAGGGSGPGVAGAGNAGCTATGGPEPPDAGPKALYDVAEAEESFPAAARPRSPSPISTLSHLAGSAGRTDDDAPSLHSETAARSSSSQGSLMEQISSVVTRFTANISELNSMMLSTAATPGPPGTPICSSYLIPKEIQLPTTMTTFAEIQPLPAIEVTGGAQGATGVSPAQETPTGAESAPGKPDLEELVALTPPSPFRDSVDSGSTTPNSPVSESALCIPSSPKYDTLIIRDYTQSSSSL

COc1ccc(C#Cc2ncnc3c2cc(C(=O)Nc2ccc(N(C)C)cc2)n3C)cc1
IC50 [1]: 824 nM

COc1ccc(C#Cc2ncnc3c2cc(C(=O)Nc2ccccc2)n3C)cc1
IC50 [1]: 764 nM

COc1ccc(C#Cc2ncnc3c2cc(C(=O)Nc2ccc(C(C)(C)C)cc2)n3C)cc1
IC50 [1]: 734 nM

Cc1ccc(C#Cc2ncnc3c2cc(C(=O)Nc2ccccc2)n3C)cc1
IC50 [1]: 1380 nM

Cc1ccc(NC(=O)c2cc3c(C#Cc4csc(C)n4)ncnc3n2C)cc1
IC50 [1]: 5570 nM

COc1ccc(C#Cc2ncnc3c2cc(C(=O)Nc2ccc(F)cc2)n3C)cc1
IC50 [1]: 482 nM

CN(C)c1ccc(NC(=O)c2cc3c(C#Cc4ccccn4)ncnc3n2C)cc1
IC50 [1]: 2470 nM

Cn1c(C(=O)Nc2ccc(C(C)(C)C)cc2)cc2c(C#Cc3ccccn3)ncnc21
IC50 [1]: 2030 nM

CN(C)c1ccc(NC(=O)c2cc3c(C#Cc4ccc(F)cc4)ncnc3n2C)cc1
IC50 [1]: 135 nM

Cn1c(C(=O)Nc2cccc(Cl)c2)cc2c(C#Cc3ccccc3)ncnc21
IC50 [1]: 529 nM

Cn1c(C(=O)Nc2ccc(F)cc2)cc2c(C#Cc3ccccn3)ncnc21
IC50 [1]: 3180 nM

Cc1nc(C#Cc2ncnc3c2cc(C(=O)Nc2ccccc2)n3C)cs1
IC50 [1]: 2280 nM

Cc1nc(C#Cc2ccnc(Cl)c2)c(C)n1-c1ccc(F)cc1 [BASIMGLURANT]
IC50 [1]: 4.3 nM

Cn1c(C(=O)Nc2ccc(Cl)c(Cl)c2)cc2c(C#Cc3ccccc3)ncnc21
IC50 [1]: 2030 nM

COc1ccc(NC(=O)c2cc3c(C#Cc4ccc(C)cc4)ncnc3n2C)cc1
IC50 [1]: 356 nM

Cc1ccc(C#Cc2ncnc3c2cc(C(=O)Nc2ccc(N(C)C)cc2)n3C)cc1
IC50 [1]: 3760 nM

Cc1ccc(NC(=O)c2cc3c(C#Cc4ccc(F)cc4)ncnc3n2C)cc1
IC50 [1]: 101 nM

Cn1c(C(=O)Nc2ccccc2)cc2c(C#Cc3ccccc3)ncnc21
IC50 [1]: 75.4 nM

Cn1c(C(=O)Nc2ccc(C(C)(C)C)cc2)cc2c(C#Cc3ccccc3)ncnc21
IC50 [1]: 1390 nM

COc1ccc(NC(=O)c2cc3c(C#Cc4csc(C)n4)ncnc3n2C)cc1
IC50 [1]: 236 nM

Cc1ccc(C#Cc2ncnc3c2cc(C(=O)Nc2ccc(C(C)(C)C)cc2)n3C)cc1
IC50 [1]: > 10000 nM

Cc1ccc(NC(=O)c2cc3c(C#Cc4ccccc4)ncnc3n2C)cc1
IC50 [1]: 38.9 nM

Cn1c(C(=O)Nc2ccc(F)cc2)cc2c(C#Cc3ccccc3)ncnc21
IC50 [1]: 63.6 nM

Cn1c(C(=O)Nc2ccc(I)cc2)cc2c(C#Cc3ccccc3)ncnc21
IC50 [1]: 194 nM

Cn1c(C(=O)Nc2ccc(C(C)(C)C)cc2)cc2c(C#Cc3ccc(F)cc3)ncnc21
IC50 [1]: 2340 nM

Cn1c(C(=O)Nc2ccccc2)cc2c(C#Cc3ccc(F)cc3)ncnc21
IC50 [1]: 62.2 nM

COc1ccc(NC(=O)c2cc3c(C#Cc4ccccn4)ncnc3n2C)cc1
IC50 [1]: 922 nM

COc1ccc(NC(=O)c2cc3c(C#Cc4ccc(F)cc4)ncnc3n2C)cc1
IC50 [1]: 15.2 nM

COc1ccc(NC(=O)c2cc3c(C#Cc4ccccc4)ncnc3n2C)cc1
Activity [2]: Non-Toxic
Activity (Mus musculus [3]): Active
Activity [4]: Non-Toxic
Activity (Mus musculus [5]): Active
IC50 [1]: 11.5 nM
Activity (Mus musculus [6]): Active
Activity (Mus musculus [7]): inactive
Activity (Mus musculus [8]): Active
Activity (Mus musculus [9]): Active
Activity (Mus musculus [10]): Active
Activity (Mus musculus [11]): Active
Activity (Mus musculus [12]): Active
Activity (Mus musculus [13]): Active
Activity (Mus musculus [14]): Active
Activity (Mus musculus [15]): Active
Activity (Mus musculus [16]): Active
Activity [17]: Non-Toxic
Activity (Mus musculus [18]): Active
Activity (Mus musculus [19]): Active
Activity (Mus musculus [20]): Active
Activity (Mus musculus [21]): Active
Activity (Mus musculus [22]): Active

Cn1c(C(=O)Nc2ccc(Cl)cc2)cc2c(C#Cc3ccccc3)ncnc21
IC50 [1]: 622 nM

Cc1ccc(C#Cc2ncnc3c2cc(C(=O)Nc2ccc(F)cc2)n3C)cc1
IC50 [1]: 1010 nM

Cn1c(C(=O)Nc2ccc(Cl)cc2)cc2c(C#Cc3ccc(F)cc3)ncnc21
IC50 [1]: 248 nM

COc1ccc(C#Cc2ncnc3c2cc(C(=O)Nc2ccc(OC)cc2)n3C)cc1
IC50 [1]: 84 nM

Cc1ccc(C#Cc2ncnc3c2cc(C(=O)Nc2ccc(C)cc2)n3C)cc1
IC50 [1]: 947 nM

Cn1c(C(=O)Nc2ccc(OC(F)(F)F)cc2)cc2c(C#Cc3ccccc3)ncnc21
IC50 [1]: 308 nM

Cn1c(C(=O)Nc2ccc(F)cc2)cc2c(C#Cc3ccc(F)cc3)ncnc21
IC50 [1]: 90.8 nM

COc1ccc(C#Cc2ncnc3c2cc(C(=O)Nc2ccc(C)cc2)n3C)cc1
IC50 [1]: 241 nM

CNCCC(Oc1ccc(C(F)(F)F)cc1)c1ccccc1 (configuration not stated)
Activity (Mus musculus [23]): Active
Activity (Mus musculus [24]): Active
Activity (Mus musculus [25]): Active
Activity (Mus musculus [26]): Active
Activity (Mus musculus [27]): inactive
Activity (Mus musculus [28]): Active
Activity (Mus musculus [29]): Active
Activity (Mus musculus [30]): Active

CN(C)c1ccc(NC(=O)c2cc3c(C#Cc4ccccc4)ncnc3n2C)cc1
IC50 [1]: 125 nM
